± gives the expanded uncertainty stated by the source.
Details: 298.2 K; 101.33 kPa; Liquid; Pycnometric method

mass density: 796 ± 1 kg/m3
Compound: CO [methanol]

From the NIST ThermoML archive (doi:10.1021/je900599q)
